# Laboratory results taken from patent US20100292231A1, “Indazole Compounds for Treating Inflammatory Disorders, Demyelinating Disorders and Cancers” (priority 2007, published 2010).
# Tests used:
# Assay type in all cases: cell-based
# BaF3-D835N = biological target: T1, BaF3-D835N (Homo sapiens, UniProt P36888, D835N, cells depend on it); assay: MTS cellular proliferation assay; conditions: 72 hour incubation, read-out: Growth inhibitory activity (in vivo EC50 nM)
# T1 sequence (P36888 1-993 D835N): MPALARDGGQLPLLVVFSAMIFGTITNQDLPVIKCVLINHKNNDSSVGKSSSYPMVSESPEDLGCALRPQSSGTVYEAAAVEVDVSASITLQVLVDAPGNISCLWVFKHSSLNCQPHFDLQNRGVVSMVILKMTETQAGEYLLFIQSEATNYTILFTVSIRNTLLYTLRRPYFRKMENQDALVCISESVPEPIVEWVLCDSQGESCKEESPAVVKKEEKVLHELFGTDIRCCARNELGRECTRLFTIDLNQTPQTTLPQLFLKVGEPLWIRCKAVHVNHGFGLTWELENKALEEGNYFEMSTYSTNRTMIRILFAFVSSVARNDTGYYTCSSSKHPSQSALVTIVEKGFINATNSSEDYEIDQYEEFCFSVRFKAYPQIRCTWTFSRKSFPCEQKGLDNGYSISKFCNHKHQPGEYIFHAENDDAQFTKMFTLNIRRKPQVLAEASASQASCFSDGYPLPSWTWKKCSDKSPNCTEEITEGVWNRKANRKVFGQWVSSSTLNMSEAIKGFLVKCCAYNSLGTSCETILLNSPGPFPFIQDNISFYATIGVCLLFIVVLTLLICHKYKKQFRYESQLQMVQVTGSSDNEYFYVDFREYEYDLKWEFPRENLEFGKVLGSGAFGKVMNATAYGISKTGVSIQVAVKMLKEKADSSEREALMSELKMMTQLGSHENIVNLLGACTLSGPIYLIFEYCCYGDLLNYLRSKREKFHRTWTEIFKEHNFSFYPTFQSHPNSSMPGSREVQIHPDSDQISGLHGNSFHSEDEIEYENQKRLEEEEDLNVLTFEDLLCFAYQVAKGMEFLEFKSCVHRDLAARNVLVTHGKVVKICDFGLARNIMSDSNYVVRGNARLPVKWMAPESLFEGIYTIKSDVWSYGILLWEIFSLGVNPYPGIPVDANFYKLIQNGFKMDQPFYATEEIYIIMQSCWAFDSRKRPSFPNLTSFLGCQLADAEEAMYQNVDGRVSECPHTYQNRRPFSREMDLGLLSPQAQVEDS
# Source text: (§1) The viability of Flt3 expressing cells can be evaluated using a tetrazolium salt reduction cell-based assay. […] BaF3, both wild type and mutant, as well as transfected strains, MV4-11 and MOLM14 are well-characterized Flt3-dependent humanized or human cell lines which express active Flt3 receptors (see, Yee et al. Blood (2002)100 (8):2941-2949; Levis et al. (2002) 99(11): 3885-3891). These cell lines were used to determine the ability of the compounds provided herein to inhibit Flt3 in intact cells. In each case, and by methods known to those practiced in the art of cell culture, proliferation was measured after 72 hour incubation with the compounds provided herein using a standard MTS protocol (Promega Cat #5430 “Cell Titer 96 Aqueous Non-radioactive Cell Proliferation Assay”).
# (§2) In general, cells were plated at 10,000-20,000 cells per well in DMEM medium with 0.5% serum. The compound plate was set up by aliquoting into column 1 of a 96 well 300 ul polypropylene plate, the negative control (DMSO), aliquoting into column 12 the positive control and titrating the test compound in serial dilutions into columns 2-1 l. An aliquot from each well of the compound plate was transferred to the plated cells and then incubated @ […] in 5% CO2. [00538] MTS tetrazolium compound (Owen's reagent) was thawed in a H2O bath. 20 μl of MTS tetrazolium was added to each well of optical plate and the cells were incubated @ 37° C. in 5% CO2 for 2 hours. The absorbance measured at 490 nm using a microplate reader.
# MV-4-11 = assay: MTS cellular proliferation assay; conditions: Homo sapiens, MV4-11, 72 hour incubation, read-out: Growth inhibitory activity (in vivo EC50 nM)
# Source text: as §1, §2
# Mda231 cells = assay: BME cell invasion assay (Boyden chamber principle); conditions: 24 hours
# Method: Representative compounds were tested for their ability to inhibit invasion of Mda231 cells. Invasive cells are a mark of metastatic tumors. The in vitro invasion assay is based on the Boyden chamber assay principle.
# The 96-well BME cell invasion assay kit was used according to the manufacturers' protocol (Culturex™ catalog number: 3455-096-K). Prior to assay cells were serum starved for 18 hrs and the membrane of the top invasion chamber was coated with 50 μl of 0.83× BME solution and incubated overnight at 37° C./5% CO2. The next day cells were harvested and 40.000 cells/well in 50 μl medium without serum were plated to top chamber. 150 μl of medium with serum was added to bottom chamber. Compounds were added and cells were incubated for 24 hrs at 37° C./5% CO2. The remaining cells were assayed for standard curve.
# After 24 hours, the bottom chamber was aspirated and washed twice with 200 μl wash buffer. The bottom chamber was transferred to a black assay plate. Cells migrated through the membrane are stained with Calcein-AM and measured with fluorescence spectrophotometry; 150 μl Calcein-AM/Cell dissociation solution was added and incubated at 37° C./5% CO2. After 1 hour, the plate was read at 485 nm excitation, 520 nm emission. Using standard curve, the fluorescence signal measured was converted to cell number and percent invasion was determined.
Compound,EC50 (BaF3-D835N) [nM],EC50 (MV-4-11) [nM],inhibition of cell invasion (Mda231 cells)
CN(C)CCCCCNc1ccc2ncn3c4ccc5[nH]ncc5c4c(=O)c1c23 [(III)],316,184,–
CCN(CC)CCCNc1ccc2ncn3c4ccc5[nH]ncc5c4c(=O)c1c23 [Compound (XV)],–,–,slightly more effective than Symadex
CN1CCN(CCCNc2ccc3ncn4c5ccc6[nH]ncc6c5c(=O)c2c34)CC1 [(XVII)],–,–,slightly more effective than Symadex
"CCN(CC)CCNc1ccc2ncn3c4ccc(O)cc4c(=O)c1c23 [Symadex, 5-(2-(diethylamino)ethylamino)-8-hydroxy-6H-imidazo[4,5,1-de]acridin-6-one, reference compound]",14.3,13.1,–
CN(C)CCCNc1ccc2ncn3c4ccc5[nH]ncc5c4c(=O)c1c23 [Compound (IV)],12,12,–
